Laboratory results as given in patent publication US20090325202A1, “Methods for Developing and Assessing Therapeutic Agents” (priority 2006, published 2009).
“And” between values parts separate entries of the source, which are not always exact repeats. Equal entries are not always repeated. “Also recorded” adds a separate entry of the source.

What was measured:
HuCCT-1 tumors = assay: HuCCT-1 xenograft tumor growth; format: in vivo, athymic (nu+/nu+) mice; conditions: single agents: gefitinib 150 mg/Kg i.p. days 1-5 and 8-12, CI-1040 150 mg/Kg twice a day oral days 1-14
Experimental: (§1) Four to 6-week-old female athymic (nu+/nu+) mice were purchased from Harlan (Harlan Laboratories, Washington, D.C.). The research protocol was approved by the Johns Hopkins University Animal Care Committee and animals were maintained in accordance with the guidelines of the American Association of Laboratory Animal Care. […] Mice were monitored daily for signs of toxicity and were weighed three times per week. Tumor size was evaluated three times per week by caliper measurements using the following formula: tumor volume=[length×width^2]/2. Tumor growth inhibition was calculated by tumor volume of treated mice divided by tumor volume of control mice. Experiments were terminated on day 14.
To explore the feasibility of implementing this method in in vivo studies, mouse xenografts were next employed to test whether FNAB material obtained from tumor tissue can be utilized to monitor and predict therapy response in vivo. For this purpose HuCCT-1 cholangiocarcinoma cells were used to create a xenograft mouse model of human cholangiocarcinoma. […] Tumor volumes were measured and compared with tumors from animals that received drug vehicle alone.

ERK1/2 [1] = assay: HuCCT-1 xenograft tumor FNAB Western blot, ERK1/2 activity; format: in vivo, human
Experimental: as §1
Fine needle aspirates were obtained with a 25G needle and 10 ml syringe, passing the needle through the tumor 10 times with application of 1-2 ml suction The aspirated material was expressed onto clear glass slides and smeared. All smears were allowed to air dry and then stained with Diff-Quik stain (Baxter Healthcare, Miami, Fla.). Five to ten AD/DQ-stained cytological smears were prepared from each tumor sample. The cellular composition of each aspirate was assessed by cytopathologists.
(§2) Total cell lysates were obtained from either cells cultured in vitro or from tumor FNAB samples. […] Immunoreactive proteins were visualized by enhanced chemiluminescence (Amersham International, United Kingdom). Total and phospho-ERK1/2 proteins were quantified by sandwich [LISA kits (BioSource International, Camarillo, Calif., USA) as described in the manufacturer's protocols. The reaction was read at 450 nm in an ELISA plate reader.
Next, whether FNAB samples obtained from tumor tissue at the early stage of therapy can be used to predict tumor response was examined. […] Expression and phosphorylation levels of ERK 1/2 were analyzed on Western blot by using extracts prepared from AD/DQ-stained FNAB samples.

ERK1/2 [2] = assay: HuCCT-1 xenograft tumor FNAB phospho-/total ERK1/2 ELISA; format: in vivo, human
Experimental: as §1, §2
Western blot analysis of protein samples is a conventional method for phosphoprotein analysis, but is limited in throughput, quantitative precision and requires large sample amounts. ELISA assays offer alternatives to Western blot with higher throughput and increased sensitivity. […] For this purpose the tumor FNAB samples, which have been analyzed on Western blot above (FIG. 16A), were used to assess the expression and phosphorylation of ERK1/2 proteins by the total and phospho-specific ERK1/2 ELISA assays, respectively.
The amounts of phosphorylated ERK1/2 were normalized for the total contents of these proteins in each sample group and therapy-mediated changes in their phosphorylation status were quantified.

ERK1/2 [3] = assay: Phospho-/total ERK1/2 ELISA in EGF-stimulated T-47D cell smears; format: cell-based, human; conditions: T-47D cells, AG1478 0.5 uM, PD98059 20 uM
Experimental: T47D cells were maintained in Dulbecco's modified Eagle's medium (Life Technologies, Inc.) supplemented with 10% fetal calf serum and antibiotics (Life Technologies, Inc.). Prior to EGF (Sigma) stimulation, cells were starved for 24 h in serum-free medium.
Total cell lysates were obtained from either cells cultured in vitro or from tumor FNAB samples. Protein extracts were resolved by 4-15% SDS-PAGE and probed with Rabbit anti-EGFR, anti-phospbo-EGFR, anti-ERK1 and anti-phospho-ERK antibodies obtained from New England Biolabs (Beverly, Mass.). Immunoreactive proteins were visualized by enhanced chemiluminescence (Amersham International, United Kingdom). Total and phospho-ERK1/2 proteins were quantified by sandwich [LISA kits (BioSource International, Camarillo, Calif., USA) as described in the manufacturer's protocols. The reaction was read at 450 nm in an ELISA plate reader.
Western blot analysis of protein samples is a conventional method for phosphoprotein analysis. However, Western blot analysis is limited in throughput and quantitative precision, and also requires large sample amounts. […] Therefore, it was tested if quantitative ELISA assays can be applied to cytologic samples to increase the assay sensitivity to measure the expression levels and activation status of specific signaling pathways. […]

[4] = system: primary human pancreatic cancer xenograft tumors; assay: Tumor growth (RTG) in xenograft mouse models of primary human pancreatic cancer; format: in vivo, athymic (nu+/nu+) mice
From the text: Four-week-old female athymic (nu+/nu+) mice were purchased from Harlan (Harlan Laboratories, Washington, D.C.). The research protocol was approved by the Johns Hopkins University Animal Care and Use Committee and animals were maintained in accordance to guidelines of the American Association of Laboratory Animal Care. Briefly, frozen pancreatic xenografts in first passage in mice, after being obtained from surgical specimens of patients undergoing pancreatic resection for adenocarcinoma at the Johns Hopkins Hospital were re-implanted subcutaneously in groups of 5 mice for each patient, with 2 small pieces per mouse (F2 generation). Tumors were allowed to grow to a size of 1.5 cm at which point they were harvested, divided into small ˜3×3×3 mm pieces, and transplanted to another 18-22 mice, with two tumors per mouse. Tumors from this second mouse-to-mouse passage were allowed to grow until reaching −200 mm^3, at which time mice were randomized in the following three treatment groups, with 6 mice in each group: control (vehicle), erlotinib (50 mg/kg/day i.p.), and temsirolimus (20 mg/kg days 1-5 i.p.). Mice were monitored daily for signs of toxicity and were weighed three times per week. Tumor size was evaluated three times per week by caliper measurements using the following formula: tumor volume=[length×width^2]/2 as previously reported (19). Relative tumor growth (RTG) was calculated by tumor growth of treated mice divided by tumor growth of control mice (T/C)×100. Experiments were terminated on day 28. Tumor response was defined as sensitive, when RTG was less than 50% on day 28.

ERK1/2 [5] = assay: Ex vivo FNAB drug sensitivity assay, ERK1/2 phosphorylation by Western blot; format: cell-based, human
Experimental: Tumor cells were collected by FNAB from the xenograft animals before the start of treatment using a sterile 25G short needle. Tumor samples were immediately transferred into 10 ml sterile prewarmed complete RPMI-1640 culture medium containing 10% FBS, penicillin (200 μg/ml), and streptomycin (200 μg/ml). Cells were incubated with 0.04% trypan blue (Sigma) dissolved in PBS (9.1 mM Na2HPO4, 1.7 mM NaH2PO4, and 150 mM NaCl, pH 7.4). The viable (membrane-intact) and dead cells were then counted using Neubauer hemocytometer and the total viable cell count was used to calculate final working volumes. Approximately 25,000 viable tumor cells were seeded into each well of a 6-well polypropylene microplate. Cells were treated in duplicates with vehicle (control), erlotinib (5 μM) or temsirolimus (1 μM) in a humidified 5% CO2 incubator at 37° C. for 6 hours. No fibroblast and endothelial cell growth was observed. Following treatment, non-adherent and adherent cells (only a few, collected by scraping) were pooled together and centrifuged at 500×g for 5 min at 4° C. After washing with PBS, cells were lysed in 100 μL of ice-cold lysis buffer (50 mM Tris-HCl, 0.25M NaCl, 0.1% (v/v) Triton X-100, 1 mM EDTA, 50 mM NaF, and 0.1 mM Na3VO4, pH 7.4) containing protease and phosphatase inhibitors (Roche Molecular Biochemicals) and analyzed by Western blot.
Protein concentrations obtained from FNAB samples were quantified before each experiment. Protein extracts (15 μg) were electrophoresed on a 10% (w/v) SDS-polyacrylamide gel. After electrotransfer to Immobilon-P membranes (Millipore), membranes were blocked at room temperature using SuperBlock (Pierce) for one hour. The primary antibodies were diluted at 1:1000 in 1:10 dilution of SuperBlock solution and the membranes were incubated with primary antibodies overnight at 4° C. The antibodies tested were phospho-ERK1/2 (Cell signal #9101), phospho-S6 Ribosomal Protein (Cell Signaling Technology, Beverly, Mass.) and total ERK1/2 (Cell Signaling Technology, Beverly, Mass.) and total S6 Ribosomal Protein (Cell Signaling Technology, Beverly, Mass.). The next day, the membranes were washed and incubated for 1 h at room temperature with horseradish peroxidase (HRP)-conjugated secondary antibodies, rabbit IgG-HRP (Santa Cruz Biotechnology), or mouse IgG-HRP (Santa Cruz Biotechnology) at a final dilution of 1:3000. Antibody binding was visualized using enhanced chemiluminescence (SuperSignal West Pico, Pierce) and autoradiography.
To test if tumor cells obtained by FNAB can be used in the ex vivo assays to predict tumor response in vivo, 25,000 viable cancer cells, as determined by trypan blue dye exclusion, were treated with erlotinib or temsirolimus for six hours, after which signal pathway inhibition was analyzed by Western blot. Under these cell culture conditions no fibroblast and endothelial cell growth was detected (data not shown).
To determine whether standard clinical FNAB specimens provide adequately cellular tumor samples to perform ex vivo prediction assays, adenocarcinoma cells were collected by ultrasound or computer tomography-guided FNAB technique from pancreatic cancer patients during routine diagnostic procedures. Tumor cells were isolated by centrifugation from the needle rinse suspensions and treated with vehicle (control), erlotinib, or temsirolimus ex vivo for six hours.

O=C(NOCC1CC1)c1ccc(F)c(F)c1Nc1ccc(I)cc1Cl [CI-1040]
decrease in tumor volume (HuCCT-1 tumors): 11% | ERK1/2 activity (phospho-ERK1/2 immunoblot) (ERK1/2 [1]; HuCCT-1 tumor FNAB samples of treated mice, gefitinib, CI-1040 alone or combined): only a slight inhibition in ERK1/2 activity | ERK1/2 activity, serial FNAB sampling (ERK1/2 [1]; combination: as early as 6 h after first administration, sustained for two weeks, single agents: 6 h or 5 d): neither of these agents alone caused inhibition | phosphorylation levels of ERK1/2 by phospho-ERK1/2 ELISA (raw data) (ERK1/2 [2]; HuCCT-1 tumor FNAB samples of treated animals): neither gefitinib nor CI-1040 treatment alone caused any significant change | decrease of ERK1/2 phosphorylation (normalized for total ERK1/2) (ERK1/2 [2]; HuCCT-1 tumor FNAB, CI-1040 alone): 19%

COc1cccc(-c2cc(=O)c3ccccc3o2)c1N [PD98059]
inhibition of EGF-induced ERK1/2 phosphorylation (phospho-ELISA normalized for total ERK1/2) (ERK1/2 [3]): 50% and 60%

C#Cc1cccc(Nc2ncnc3cc(OCCOC)c(OCCOC)cc23)c1 [erlotinib]
RTG ([4]; remaining seven tumors (all but A198), erlotinib 50 mg/kg/day i.p., day 28): greater than 50% | tumor response ([4]; tumor A198): sensitive (Tumor response was defined as sensitive, when RTG was less than 50% on day 28) | tumor response ([4]; tumor A265): resistant (greater than 50% RTG and were defined as resistant) | ERK1/2 activation ex vivo (ERK1/2 [5]; all resistant tumors of the xenograft panel, erlotinib 5 μM, 6 hours): failed to inhibit ERK1/2 activation | ERK1/2 phosphorylation ex vivo (ERK1/2 [5]; cancer cells from pancreatic cancer patient 1, six hours): dramatically blocked ERK1/2 phosphorylation | phosphorylation of ERK1/2 ex vivo (ERK1/2 [5]; cells from resistant tumor A265, erlotinib 5 μM, 6 hours): failed to inhibit ERK1/2 phosphorylation | phosphorylation of ERK1/2 ex vivo (ERK1/2 [5]; cells from tumor A198, erlotinib 5 μM, 6 hours): dramatic inhibition; also recorded: did show inhibition of ERK1/2; also recorded: inhibited ERK1/2 activation | ERK1/2 activity ex vivo (ERK1/2 [5]; tumor cells of pancreatic cancer patient 2 and 3, six hours): did not effectively block ERK1/2 activity
